From patent publication US11660280B2, “Treatment of drug resistant gliomas” (OKLAHOMA MEDICAL RESEARCH FOUNDATION, priority 2017, dated 2023)

What was measured:
HIF-1α [1] = assay: ELISA protein level in human GBM cell lysates; type: cell-based
Procedure: (§1) ELISA for HIF-1a, MPG and MGMT. Protein expressions were assessed in all six glioma cell lines for all four groups of treatment (cell alone, cells with TMZ, cells with OKN, cells with combined OKN and TMZ). Cells were lysed before assaying. In brief, cells were washed by cold PBS gently, and then detached with trypsin, and collected by centrifugation at 1,000×g for 5 minutes. Then, cells were washed three times in cold PBS, then suspended in fresh lysis buffer. Lysates were centrifuged at 1,500×g for 10 minutes at 2-8° C. to remove cellular debris.
(§2) The assay is based on the sandwich ELISA principle. Each well of the supplied microtiter plate has been pre-coated with a target specific capture antibody. Standards or samples are added to the wells and the target antigen binds to the capture antibody. Unbound Standard or sample is washed away. A biotin-conjugated detection antibody is then added which binds to the captured antigen. Unbound detection antibody is washed away. An Avidin-Horseradish Peroxidase (HRP) conjugate is then added which binds to the biotin. Unbound Avidin-HRP conjugate is washed away. A TMB substrate is then added which reacts with the HRP enzyme resulting in color development. A sulfuric acid stop solution is added to terminate color development reaction and then the optical density (OD) of the well is measured at a wavelength of 450 nm±2 nm. The OD of an unknown sample can then be compared to an OD standard curve generated using known antigen concentrations in order to determine its antigen concentration.
(§3) The antigen concentration determined from ELISA was then normalized to the total protein concentration of each cell lysate in order to have comparison between groups. ELISA Kits for N-Methylpurine DNA Glycosylase (MPG) and for Hypoxia Inducible Factor 1 Alpha (HIF1a) were purchased from CLOUD-CLONE CORP.(CCC) and for Human MGMT from LifeSpan Biosciences, Inc.

MPG = assay: ELISA protein level in human GBM cell lysates; type: cell-based
Procedure: as §1, §2, §3

MGMT = assay: ELISA protein level in human GBM cell lysates; type: cell-based
Procedure: as §1, §2, §3

HIF-1α [2] = assay: RT-PCR gene-fold changes in human GBM cells; type: cell-based
Procedure: Quantification of mRNA by real-time quantitative RT-PCR for HIF-1a, MPG and MGMT. Total RNA from all cell lines with all treatments was purified with an RNeasy Mini Kit (Qiagen), and quantified by spectrophotometry (Nanodrop). cDNA was synthesized using SuperScript IV Reverse Transcriptase Kit (Invitrogen).
Target gene mRNA was amplified and measured by Bio-Rad CFX96™ Real Time System. Gene expression was determined using the SYBR Select Master Mix (Applied Biosystems). […] The reaction is characterized by the point during cycling when amplification of PCR products is first detected, rather than the amount of PCR product accumulated after a fixed number of cycles. The higher the starting quantity of the template, the earlier a significant increase in fluorescence is observed. The threshold cycle is defined as the fractional cycle number at which fluorescence passes a fixed threshold above the baseline. Fluorescence data were converted into cycle threshold measurements exported to Microsoft Excel. Glyceraldehyde-3-phosphatase dehydrogenase (GAPDH) mRNA expression levels were used as the quantitative internal control. For precise quantification, the mRNA expression level of each sample was normalized using the expression of the GAPDH gene.
All primers were synthesized by Integrated DNA Technologies. The primers used were: […]

human G55 xenograft = assay: Orthotopic G55 human GBM xenograft in nude mice (survival, MRI tumor volume, perfusion rCBF); type: in vivo, mouse
Procedure: Mice and Treatments. Animal studies were conducted in accordance to the OMRF IACUC (Institutional Animal Care and Use Committee) policies, which follow NIH guidelines. Two-month-old male nude mice (Hsd:Athymic Nude-Foxnlnu mice; Harlan Inc., Indianapolis, Ind.) were implanted intra-cerebrally with human G55 xenograft cells (1×10^7) per mL suspended in 4 μL in cell culture media of 1% aragose solution. Once tumors reached 10-15 mm^3 (determined via MRI), mice were either treated every 3 days with OKN-007 (150 mg/kg; via drinking water continuously) or TMZ (30 mg/kg via gavage every 3 days). TMZ was dissolved in 5% DMSO and 5% solutol-15 in sterile saline. Mice were treated until the tumor reached 100-150 mm^3 or for a total of up to 60 days after tumors were detected by MRI (>5 mm^3).
MRI. MRI experiments were performed on a Bruker Bio-spec 7.0 Tesla/30-cm horizontal-bore magnet imaging system. […] T2-weighted imaging was obtained, and tumor volumes were calculated from MRI datasets.
Perfusion imaging. In order to assess microvascular alterations associated with tumor capillaries, the perfusion imaging method, arterial spin labeling (ASL), was used. Perfusion maps were obtained on a single axial slice of the brain located on the point of the rostro-caudal axis where the tumor has the largest cross-section. Five regions of interest (ROIs) were manually outlined around the tumor, and appropriate ROIs were also taken from the contralateral side of the brain for comparison purposes. To calculate the differences in rCBF values, tumor rCBF values were obtained at late (days 18-26 following intracerebral implantation of cells for untreated mice) and early (days 10-13 following cell implantation) tumor stages, and normalized to rCBF values in the contralateral brain region of corresponding animals.
Statistical analyses. Survival curves were analyzed using Kaplan-Meier curves. Tumor volumes, changes in normalized rCBF, and LBP levels were compared by two-way ANOVA with multiple comparisons. Data were represented as mean±SD, and P-values of either *0.05, **0.01, ***0.001, and ****0.0001 were considered statistically significant.
Mice and Treatments. Animal studies were conducted in accordance to the OMRF IACUC (Institutional Animal Care and Use Committee) policies, which follow NIH guidelines. […] Once tumors reached 10-15 mm^3 (determined via MRI), mice were either treated daily with OKN-007 in the drinking water (150 mg/kg; 0.20% w/v for a 20 g mouse), or every 3 days with TMZ (30 mg/kg). […] Water bottles were weighed, and the amount of OKN-007 consumed per mouse was determined. […]

`CC(C)(C)[N+]([O-])=Cc1ccc(S(=O)(=O)O)cc1S(=O)(=O)O` [OKN-007, 2,4-disulfonyl phenyl tert-butyl nitrone] was tested, and the “ELISA protein level HIF-1α” value (HIF-1α [1]; G55 cells, UT 0.14) was 0.19 ng/mg cell lysate, the “ELISA protein level HIF-1α” value (HIF-1α [1]; LN18 cells, UT 0 76) was 0.92 ng/mg cell lysate and the “ELISA protein level HIF-1α” value (HIF-1α [1]; LN229 cells, UT 0.68) was 0.66 ng/mg cell lysate. The “ELISA protein level HIF-1α” value (HIF-1α [1]; T98 cells, UT 0.42) was 0.58 ng/mg cell lysate, the “ELISA protein level HIF-1α” value (HIF-1α [1]; U138 cells, UT 0.40) was 0.33 ng/mg cell lysate and the “ELISA protein level HIF-1α” value (HIF-1α [1]; U251 cells, UT 0.30) was 0.61 ng/mg cell lysate. The “ELISA protein level MPG” value (MPG; G55 cells, UT 1.15) was 1.41 ng/mg cell lysate, the “ELISA protein level MPG” value (MPG; LN18 cells, UT 2.18) was 2.38 ng/mg cell lysate and the “ELISA protein level MPG” value (MPG; LN229 cells, UT 2.34) was 1.88 ng/mg cell lysate. For the same molecule, the “ELISA protein level MPG” value (MPG; T98 cells, UT 3.04) was 3.61 ng/mg cell lysate, the “ELISA protein level MPG” value (MPG; U138 cells, UT 1.30) was 1.22 ng/mg cell lysate and the “ELISA protein level MPG” value (MPG; U251 cells, UT 2.70) was 2.77 ng/mg cell lysate. The “ELISA protein level MGMT” value (MGMT; G55 cells, UT 0.37) was 0.31 ng/mg cell lysate, the “ELISA protein level MGMT” value (MGMT; LN18 cells, UT 1.23) was 0.98 ng/mg cell lysate and the “ELISA protein level MGMT” value (MGMT; LN229 cells, UT 0.67) was 0.69 ng/mg cell lysate. The “ELISA protein level MGMT” value (MGMT; T98 cells, UT 0.62) was 0.84 ng/mg cell lysate, the “ELISA protein level MGMT” value (MGMT; U138 cells, UT 0.77) was 0.75 ng/mg cell lysate and the “ELISA protein level MGMT” value (MGMT; U251 cells, UT 0.92) was 0.91 ng/mg cell lysate. For the same molecule, the “RT-PCR gene-fold change HIF-1α” value (HIF-1α [2]; G55 cells (TMZ-resistant), UT 1.00) was 1.20 fold, the “RT-PCR gene-fold change HIF-1α” value (HIF-1α [2]; LN18 cells (TMZ-resistant), UT 1.03) was 1.35 fold and the “RT-PCR gene-fold change HIF-1α” value (HIF-1α [2]; LN229 cells (TMZ-sensitive), UT 1.00) was 1.09 fold. The “RT-PCR gene-fold change HIF-1α” value (HIF-1α [2]; T98 cells (TMZ-resistant), UT 1.00) was 0.58 fold, the “RT-PCR gene-fold change HIF-1α” value (HIF-1α [2]; U138 cells (TMZ-resistant), UT 1.00) was 2.93 fold and the “RT-PCR gene-fold change HIF-1α” value (HIF-1α [2]; U251 cells (TMZ-sensitive), UT 1.00) was 1.59 fold. The “percent of treated mice alive 60 days following tumor detection” value (human G55 xenograft; G55 glioma-bearing nude mice, OKN-007 150 mg/kg in drinking water, TMZ 30 mg/kg gavage every 3 days, n=5) was 20%, the “tumor volumes compared to UT mice” value (human G55 xenograft; MRI at 19-22 days following tumor detection, G55 glioma-bearing mice) was “significantly decreased tumor volumes” and the “tumor volumes compared to UT mice” value (human G55 xenograft; last MRI time-point for each treatment group) was “no significant difference in tumor volumes”. For the same molecule, the “tumor perfusion rates compared to TMZ treatment” value (human G55 xenograft; perfusion MRI, no significant differences between treated groups) was “more normalized perfusion rates”.
